Where “and” joins values, the source holds several entries; their conditions need not be identical. Equal entries are not always repeated.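 Compound exposure: 48 hours, 5 concentrations, 96-well plates. GI50 marks 50% less growth. TGI marks complete inhibition of growth.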
Tests used:
Test in all cases: DTP human tumour cell line panel, 48 h
DMS 114 small cell lung = tested on: DMS 114 small cell lung
DMS 273 small cell lung = tested on: DMS 273 small cell lung
KM20L2 colon = tested on: KM20L2 colon
SNB-78 CNS = tested on: SNB-78 CNS
HS 578T breast = tested on: HS 578T breast
MDA-MB-435 = tested on: MDA-MB-435
MDA-N = tested on: MDA-N
T-47D breast = tested on: T-47D breast
RXF-631 renal = tested on: RXF-631 renal

## COc1cc(C2C(Cl)C(=O)N2n2cnc3ccccc3c2=O)cc(OC)c1OC (stereo unspecified)
DMS 114 small cell lung
  TGI: > 100 µM
DMS 273 small cell lung
  TGI: > 100 µM
KM20L2 colon
  TGI: > 100 µM
SNB-78 CNS
  TGI: > 100 µM

## NC(N)=NC(CC(=O)O)c1ccccc1 (stereo unspecified)
HS 578T breast
  TGI: > 100 µM
MDA-MB-435
  TGI: > 100 µM
MDA-N
  TGI: > 100 µM
T-47D breast
  TGI: > 100 µM

## C/C(=N\NC(=S)Nc1ccc(C(=O)O)cc1)c1ccccn1
DMS 114 small cell lung
  TGI: > 100 µM
DMS 273 small cell lung
  TGI: 51.8 µM
KM20L2 colon
  TGI: 78.9 µM
SNB-78 CNS
  TGI: > 100 µM

## CC1(C)N=C(N)N=C(N)N1c1cccc(/C=C/C=C/c2cccc([N+](=O)[O-])c2)c1
HS 578T breast
  GI50: 12.9 µM
  TGI: 34.7 µM
MDA-MB-435
  GI50: 2.68 µM
  TGI: 15.2 µM

## Cn1ncc2cc3c(Nc4ccc(Cl)cc4)cccc3nc21
DMS 114 small cell lung
  TGI: 28.9 µM
KM20L2 colon
  TGI: 34.8 µM
RXF-631 renal
  TGI: 74.7 µM
SNB-78 CNS
  TGI: > 100 µM

## COc1ccc(-c2oc3cc(O)c(OC)c(O)c3c(=O)c2OC2OC(CO)C(O)C(O)C2O)cc1 (stereo unspecified)
DMS 114 small cell lung
  TGI: > 100 µM
DMS 273 small cell lung
  TGI: > 100 µM
KM20L2 colon
  TGI: > 100 µM
SNB-78 CNS
  TGI: > 100 µM

## O=S(=O)(c1ccc(NC(=S)N/N=C/c2ccccc2O)cc1)N1CCCCC1
HS 578T breast
  TGI: 40.5 µM
MDA-MB-435
  TGI: 11.2 µM
T-47D breast
  TGI: > 52.8 µM

## Nc1ccn(C=C=CCO)c(=O)n1
HS 578T breast
  GI50: > 1000 µM
  TGI: > 1000 µM
MDA-MB-435
  GI50: > 1000 µM
  TGI: > 1000 µM
T-47D breast
  GI50: > 1000 µM
  TGI: > 1000 µM

## Cc1ccc(-c2c(C#N)c(N)nc(N3CCOCC3)c2C#N)o1
HS 578T breast
  GI50: 39.2 µM
  TGI: > 100 µM

## C[C@H]1[C@H](OC(=O)CCC(=O)O)O[C@@H]2O[C@]3(C)CC[C@H]4[C@H](C)CC[C@@H]1[C@@]24OO3
HS 578T breast
  GI50: 0.986 µM
  TGI: 36.9 µM
MDA-MB-435
  GI50: 0.335 µM
  TGI: 13.5 µM
T-47D breast
  GI50: 0.4 µM
  TGI: 22.7 µM

## CCOP(=O)(OCC)C1C(=O)O[C@H]2CCCC[C@@H]12 (stereo partly specified)
DMS 114 small cell lung
  TGI: > 100 µM
DMS 273 small cell lung
  TGI: > 100 µM
KM20L2 colon
  TGI: > 100 µM
SNB-78 CNS
  TGI: > 100 µM

## COc1cc(O)c(C(=O)/C=C/c2ccccc2)c(OC)c1
HS 578T breast
  TGI: 18.2 µM
MDA-MB-435
  TGI: 25.5 µM
MDA-N
  TGI: 14.7 µM
T-47D breast
  TGI: 24.6 µM

## COc1ccccc1C(=O)/C=C/c1cc2cccc(OC)c2[nH]c1=O
HS 578T breast
  GI50: 0.0163 µM
  TGI: 10.8 µM
T-47D breast
  GI50: 0.626 µM
  TGI: 12.8 µM

## CCOC(=O)CCC(NC(=O)c1ccc(N=Cc2nc3cc(C(F)(F)F)ccc3nc2-c2ccccc2)cc1)C(=O)OCC (stereo unspecified)
DMS 114 small cell lung
  TGI: > 100 µM
DMS 273 small cell lung
  TGI: > 100 µM
KM20L2 colon
  GI50: > 100 µM
  TGI: > 100 µM
SNB-78 CNS
  GI50: 18.1 µM
  TGI: 32 µM and 98.8 µM

## Cc1cc2c(C)c3cc(C)c(N)cc3nc2cc1N
HS 578T breast
  GI50: 1.64 µM
  TGI: 7.95 µM
MDA-MB-435
  GI50: 1.06 µM
  TGI: 5.93 µM
T-47D breast
  GI50: 0.754 µM
  TGI: 5.28 µM

## COc1cc[nH]c1/C=C1\C(=O)Nc2ccc(F)c(C#C[C@@H](O)[C@@H](N)[C@@H](C)O)c21
HS 578T breast
  GI50: 0.381 µM
  TGI: 1.68 µM
MDA-MB-435
  GI50: 0.561 µM
  TGI: 2.83 µM
T-47D breast
  GI50: 0.993 µM
  TGI: 6.07 µM

## CCOC(=O)/C(C1=N[C@H](C(=O)OCC)CS1)=C(\C)O
KM20L2 colon
  TGI: > 100 µM
RXF-631 renal
  TGI: > 100 µM
SNB-78 CNS
  TGI: > 100 µM

## CCCCN(CCCC)C(=O)C(=O)CC(=O)c1ccc(Br)cc1
DMS 114 small cell lung
  TGI: > 100 µM
DMS 273 small cell lung
  TGI: > 100 µM
KM20L2 colon
  TGI: > 100 µM
SNB-78 CNS
  TGI: > 100 µM

## C[C@@H](c1ccc2nccn2c1)n1nnc2ncc(-c3cnn(C)c3)nc21
HS 578T breast
  GI50: > 100 µM
  TGI: > 100 µM
MDA-MB-435
  GI50: > 100 µM
  TGI: > 100 µM
T-47D breast
  GI50: 53 µM
  TGI: > 100 µM

## CC(=O)c1ccc(Nc2cc(-n3ccnc3)nc3ccccc23)cc1
HS 578T breast
  GI50: 33.4 µM
  TGI: > 100 µM
MDA-MB-435
  GI50: 13.5 µM
  TGI: 60.1 µM
T-47D breast
  GI50: > 100 µM
  TGI: > 100 µM

## O=C(Nc1ccncc1)C(=O)c1cn(S(=O)(=O)c2ccc(Br)cc2)c2ccccc12
HS 578T breast
  GI50: > 100 µM
  TGI: > 100 µM
MDA-MB-435
  GI50: 0.459 µM
  TGI: 3.49 µM
T-47D breast
  GI50: 7.74 µM
  TGI: > 100 µM

## OB([O][Hg][c]1ccccc1)[O][Hg][c]1ccccc1
MDA-MB-435
  GI50: 0.475 µM
  TGI: 1.63 µM

## CC(=O)O[C@H]1C(=O)[C@@]2(C)C([C@H](OC(=O)c3ccccc3)[C@]3(O)C[C@H](OC(=O)[C@H](O)[C@H](NC(=O)c4ccccc4)c4ccc(Cl)cc4)C(C)=C1C3(C)C)C1(OC(C)=O)CO[C@@H]1C[C@@H]2O (stereo partly specified)
DMS 114 small cell lung
  TGI: 0.000649 µM
RXF-631 renal
  TGI: > 100 µM

## Cn1nc(-c2ccccc2NC(=O)C(F)(F)F)c(=O)n(C)c1=S
DMS 114 small cell lung
  TGI: 29.5 µM
DMS 273 small cell lung
  TGI: > 100 µM

## O=C1CC(=O)N(C2CCCCC2)C(=O)N1c1ccccc1S(=O)(=O)Oc1ccccc1
MDA-MB-435
  TGI: > 100 µM
MDA-N
  TGI: > 100 µM
T-47D breast
  TGI: > 100 µM

## ClC(=Nc1cccc2ccccc12)N(c1ccccc1)c1ccccc1
HS 578T breast
  TGI: > 100 µM
MDA-MB-435
  TGI: > 100 µM
MDA-N
  TGI: > 100 µM
T-47D breast
  TGI: > 100 µM

## N#C/C(=C\c1c(-c2ccccc2)[nH]c2ccccc12)C(=O)c1ccc(Cl)cc1
HS 578T breast
  GI50: 1.56 µM
  TGI: 9.27 µM
T-47D breast
  GI50: 2.89 µM
  TGI: 18.4 µM

## CCOC(=O)Cc1c(Cc2[nH]c(C(=O)OCc3ccccc3)c(CC(=O)OCC)c2CC(=O)OCC)[nH]c(C(=O)OCc2ccccc2)c1CC(=O)OCC
DMS 114 small cell lung
  TGI: > 100 µM
KM20L2 colon
  TGI: > 100 µM
SNB-78 CNS
  TGI: > 100 µM

## CC(=O)[CH-]C(=O)c1ccccc1.CC(=O)[CH-]C(=O)c1ccccc1.CCN(CC)CC[O-].CCN(CC)CC[O-].Cl.[Ti+4]
KM20L2 colon
  GI50: 28.9 µM
  TGI: > 100 µM

## Nc1nc(N)[n+]([O-])c(N)c1NCO
HS 578T breast
  TGI: > 100 µM
MDA-MB-435
  TGI: > 100 µM
MDA-N
  TGI: > 100 µM
T-47D breast
  TGI: > 100 µM

## COc1cc(C(=O)O)c([N+](=O)[O-])c(OC)c1OC
HS 578T breast
  TGI: > 100 µM
MDA-MB-435
  TGI: > 100 µM
MDA-N
  TGI: > 100 µM
T-47D breast
  TGI: > 100 µM

## COc1cc(-c2cc(C(=O)N3CCN(C(=O)c4ccccc4NCc4ccco4)CC3)nc3cc(-c4ccccc4)nn23)cc(OC)c1OC
HS 578T breast
  GI50: 3.1 µM
  TGI: > 29.3 µM
MDA-MB-435
  GI50: 0.309 µM
  TGI: 1.61 µM
T-47D breast
  GI50: 2.94 µM
  TGI: > 100 µM

## Cc1cc(NC(=O)C2c3ccccc3C(=O)N(CC(C)C)C2c2cccs2)no1 (stereo unspecified)
HS 578T breast
  GI50: 86.7 µM
  TGI: > 100 µM
MDA-MB-435
  GI50: 33.7 µM
  TGI: > 100 µM
T-47D breast
  GI50: > 100 µM
  TGI: > 100 µM

## O=C1c2ccccc2-c2c1c1ccccc1c(=O)n2CCO
HS 578T breast
  TGI: > 100 µM
MDA-MB-435
  TGI: > 100 µM
MDA-N
  TGI: > 100 µM
T-47D breast
  TGI: > 100 µM

## C=C(c1ccccc1N)[C@@]1(O)C[C@H](/C(=C\C)CO)C[C@@H]1NCc1ccccc1
DMS 114 small cell lung
  TGI: 33.9 µM
DMS 273 small cell lung
  TGI: 84.5 µM
KM20L2 colon
  TGI: 42.6 µM
SNB-78 CNS
  TGI: 79.7 µM

From PubChem BioAssay (NCI)
